We go through 9 molecules from patent US20250361230A1, “LATS Inhibitors and Uses Thereof” (The USA, as Represented by the Secretary, Dept. of Heath …, priority 2022, published 2025).

pIC50: −log10 of the molar value.

For the experiment, the target named is T1, LATS1 (Homo sapiens, UniProt O95835).
T1 sequence (O95835 1-1130): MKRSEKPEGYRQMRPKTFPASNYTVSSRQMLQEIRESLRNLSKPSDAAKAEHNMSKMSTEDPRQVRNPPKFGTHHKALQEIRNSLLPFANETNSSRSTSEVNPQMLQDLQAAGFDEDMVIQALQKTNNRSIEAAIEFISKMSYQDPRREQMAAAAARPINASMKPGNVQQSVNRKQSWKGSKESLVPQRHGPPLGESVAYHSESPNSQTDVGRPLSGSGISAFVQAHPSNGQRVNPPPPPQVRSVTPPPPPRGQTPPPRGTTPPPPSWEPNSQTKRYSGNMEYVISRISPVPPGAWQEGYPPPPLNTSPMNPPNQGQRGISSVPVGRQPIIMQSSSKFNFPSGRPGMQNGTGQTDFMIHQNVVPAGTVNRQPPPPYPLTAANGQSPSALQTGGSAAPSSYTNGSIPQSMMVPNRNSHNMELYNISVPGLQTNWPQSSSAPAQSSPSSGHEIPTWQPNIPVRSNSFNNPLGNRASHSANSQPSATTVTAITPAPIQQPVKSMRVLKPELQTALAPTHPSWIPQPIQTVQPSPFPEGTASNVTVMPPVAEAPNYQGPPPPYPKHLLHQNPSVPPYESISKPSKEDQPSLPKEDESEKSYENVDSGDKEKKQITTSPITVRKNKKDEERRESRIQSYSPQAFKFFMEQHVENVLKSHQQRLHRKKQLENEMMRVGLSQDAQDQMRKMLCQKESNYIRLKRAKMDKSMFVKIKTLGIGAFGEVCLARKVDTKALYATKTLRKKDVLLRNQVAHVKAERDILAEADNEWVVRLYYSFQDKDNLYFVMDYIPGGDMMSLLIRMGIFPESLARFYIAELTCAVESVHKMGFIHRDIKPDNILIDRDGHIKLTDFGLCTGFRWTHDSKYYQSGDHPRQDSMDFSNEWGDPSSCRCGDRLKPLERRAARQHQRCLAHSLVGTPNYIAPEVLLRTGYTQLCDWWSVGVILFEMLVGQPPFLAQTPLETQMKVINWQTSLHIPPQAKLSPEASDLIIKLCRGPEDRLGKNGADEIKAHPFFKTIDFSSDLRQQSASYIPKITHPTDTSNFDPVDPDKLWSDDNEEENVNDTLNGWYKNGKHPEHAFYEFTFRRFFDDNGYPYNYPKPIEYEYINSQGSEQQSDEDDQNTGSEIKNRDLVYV
The experiment is described as follows: RBC HotSpot kinase assay (33P-ATP, P81 filter-binding), LATS1. The conditions noted are these: biochemical kinase inhibition; read-out: LATS1 IC50. The class given is biochemical. In a few lines:
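Compounds were run as single 10-point titrations to give IC50 values in nM. Each kinase was mixed with substrate and cofactors in 20 mM Hepes pH 7.5 reaction buffer with 1% DMSO, then exposed to compound for 20 min. 33P-ATP was added for a 2 h room-temperature reaction, with activity measured by P81 filter binding.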

Regarding `Cc1cc(-c2ccnc3[nH]cc(C#N)c23)cc(F)c1[C@@]1(O)[C@H](C)CN(C(=O)[C@H](N)CO)C[C@@H]1C` [Compound 2007, 4-(4-((3S,4S,5R)-1-(D-seryl)-4-hydroxy-3,5-dimethylpiperidin-4-yl)-3-fluoro-5-methylphenyl)-1H-pyrrolo[2,3-b]pyridine-3-carbonitrile], the pIC50 (commonly the IC50 on a negative log10 scale, so that one unit is a factor of ten) is 8.07.

Consider `Cc1cc(-c2ccnc3[nH]cc(C#N)c23)cc(F)c1[C@@]1(O)[C@H](C)CN(C(=O)[C@](C)(N)CO)C[C@@H]1C` [Compound 2008, 4-(4-((3S,4s,5R)-1-(2-amino-3-hydroxy-2-methylpropanoyl)-4-hydroxy-3,5-dimethylpiperidin-4-yl)-3-fluoro-5-methylphenyl)-1H-pyrrolo[2,3-b]pyridine-3-carbonitrile], for which the pIC50 was 8.28.

As for `Cc1cc(-c2ccnc3[nH]cc(C#N)c23)cc(F)c1[C@@]1(O)[C@H](C)CN(C(=O)[C@H](C)N)C[C@@H]1C` [Compound 2011, 4-(4-((3S,4R,5R)-1-(L-alanyl)-4-hydroxy-3,5-dimethylpiperidin-4-yl)-3-fluoro-5-methylphenyl)-1H-pyrrolo[2,3-b]pyridine-3-carbonitrile], the pIC50 is 7.60.

For the molecule `CNCC(=O)N1C[C@@H](C)[C@](O)(c2c(C)cc(-c3ccnc4[nH]cc(C#N)c34)cc2F)[C@@H](C)C1` [Compound 2012, 4-(3-fluoro-4-((3S,4s,5R)-4-hydroxy-3,5-dimethyl-1-(methylglycyl)piperidin-4-yl)-5-methylphenyl)-1H-pyrrolo[2,3-b]pyridine-3-carbonitrile], the pIC50 is 8.30.

In the case of `Cc1cc(-c2ccnc3[nH]cc(C#N)c23)cc(F)c1[C@@]1(O)[C@H](C)CN(C(=O)CNCC(F)(F)F)C[C@@H]1C` [Compound 2014, 4-(3-fluoro-4-((3S,4s,5R)-4-hydroxy-3,5-dimethyl-1-((2,2,2-trifluoroethyl)glycyl)piperidin-4-yl)-5-methylphenyl)-1H-pyrrolo[2,3-b]pyridine-3-carbonitrile], the pIC50 is 8.15.

Regarding `Cc1cc(-c2ccnc3[nH]cc(C#N)c23)cc(F)c1[C@@]1(O)[C@H](C)CN(C(=O)[C@@H](C)N)C[C@@H]1C` [Compound 2015, 4-(4-((3S,4S,5R)-1-(D-alanyl)-4-hydroxy-3,5-dimethylpiperidin-4-yl)-3-fluoro-5-methylphenyl)-1H-pyrrolo[2,3-b]pyridine-3-carbonitrile], the pIC50 is 8.40.

As to `Cc1cc(-c2ccnc3[nH]cc(C#N)c23)cc(F)c1[C@@]1(O)[C@H](C)CN(C(=O)C(N)C(F)(F)F)C[C@@H]1C` (stereo partly drawn) [Compound 2017, 4-(4-((3S,4s,5R)-1-(2-amino-3,3,3-trifluoropropanoyl)-4-hydroxy-3,5-dimethylpiperidin-4-yl)-3-fluoro-5-methylphenyl)-1H-pyrrolo[2,3-b]pyridine-3-carbonitrile], the pIC50 was 8.09.

Turning to `Cc1cc(-c2ccnc3[nH]cc(C#N)c23)cc(F)c1[C@@]1(O)[C@H](C)CN(C(=O)[C@H](CO)N(C)C)C[C@@H]1C` [Compound 2023, 4-(4-((3S,4R,5R)-1-(dimethyl-L-seryl)-4-hydroxy-3,5-dimethylpiperidin-4-yl)-3-fluoro-5-methylphenyl)-1H-pyrrolo[2,3-b]pyridine-3-carbonitrile], the pIC50 is 8.36.

For `Cc1cc(-c2ccnc3[nH]cc(C#N)c23)cc(F)c1[C@@]1(O)[C@H](C)CNC[C@@H]1C` [Compound 2024, 4-(3-fluoro-4-((3S,4s,5R)-4-hydroxy-3,5-dimethylpiperidin-4-yl)-5-methylphenyl)-1H-pyrrolo[2,3-b]pyridine-3-carbonitrile], the pIC50 was 8.18.
